Test results reported in ChEMBL document CHEMBL3244121, “Esters of 4-[3-[2-(trifluoromethyl)phenothiazin-10-yl]propyl]-1-piperazieneethanol and related compounds as long-acting antipsychotic agents. Synthesis of the 1-adamantoate, the first crystalline base” (1977).

system: Rattus norvegicus; experiment: Antipsychotic activity in albino rat assessed as duration of inhibition of conditioned avoidance behavior at 25 mg/kg administered intramuscularly; format: functional; settings: route intramuscular

CCCCCCCCCCCCCC(=O)OCCN1CCN(CCCN2c3ccccc3Sc3ccc(C(F)(F)F)cc32)CC1.Cl and CCCCCCCCCCCC(=O)OCCN1CCN(CCCN2c3ccccc3Sc3ccc(C(F)(F)F)cc32)CC1.Cl are the same in Time: 28 days for the first, 28 days for the second.

First: CCCCCC(=O)OCCN1CCN(CCCN2c3ccccc3Sc3ccc(C(F)(F)F)cc32)CC1.Cl
Second: CCCCCCC(=O)OCCN1CCN(CCCN2c3ccccc3Sc3ccc(C(F)(F)F)cc32)CC1 [FLUPHENAZINE ENANTHATE]
The Time of the first is lower: 8 days for the first, 28 days for the second.

Going from CC(C)CCC(=O)OCCN1CCN(CCCN2c3ccccc3Sc3ccc(C(F)(F)F)cc32)CC1.Cl to CCCCCCCCCC(=O)OCCN1CCN(CCCN2c3ccccc3Sc3ccc(C(F)(F)F)cc32)CC1 [FLUPHENAZINE DECANOATE], the Time rises from 8 days to 12 days.
